The subject of this assay is 633275-114-R-J1-PDC complex spheroids, viability. As to the kind of experiment: Anticancer human tumor 633275-114-R-J1-PDC patient-derived endometrial adenocarcinoma cell line growth inhibition [GQUAD]. The note with it: for viability, T/C: stronger effect = lower value. Put shortly: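 Tumor cells were grown as complex spheroids with HUVEC endothelial cells and mesenchymal stem cells as stroma. G-quadruplex stabilizers were combined with targeted agents over half-log dilutions from near the clinical Cmax, or from 10 microM.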

The mark [1] stands for this setting: curve of first compound, second compound 0.0316 µM.
Where [2] appears, read: curve of first compound, second compound 0.1 µM.
[3] abbreviates: curve of first compound, second compound 0.316 µM.
The mark [4] stands for this setting: curve of first compound, second compound 1 µM.
[5] abbreviates: curve of first compound, second compound 3.16 µM.
Setting [6] is: curve of first compound, second compound 10 µM.
[7] abbreviates: second compound 0.0316 µM, first compound 0.0316 µM.
Setting [8] is: second compound 0.0316 µM, first compound 0.1 µM.
The mark [9] stands for this setting: second compound 0.0316 µM, first compound 0.316 µM.
Setting [10] is: second compound 0.0316 µM, first compound 1 µM.
The mark [11] stands for this setting: second compound 0.0316 µM, first compound 3.16 µM.
Setting [12] is: second compound 0.0316 µM, first compound 10 µM.
Setting [13] is: second compound 0.1 µM, first compound 0.0316 µM.
[14] abbreviates: second compound 0.1 µM, first compound 0.1 µM.
Setting [15] is: second compound 0.1 µM, first compound 0.316 µM.
Where [16] appears, read: second compound 0.1 µM, first compound 1 µM.
Setting [17] is: second compound 0.1 µM, first compound 3.16 µM.
Where [18] appears, read: second compound 0.1 µM, first compound 10 µM.
The mark [19] stands for this setting: second compound 0.316 µM, first compound 0.0316 µM.
Setting [20] is: second compound 0.316 µM, first compound 0.1 µM.
Setting [21] is: second compound 0.316 µM, first compound 0.316 µM.
Setting [22] is: second compound 0.316 µM, first compound 1 µM.
Where [23] appears, read: second compound 0.316 µM, first compound 3.16 µM.
Setting [24] is: second compound 0.316 µM, first compound 10 µM.
The mark [25] stands for this setting: second compound 1 µM, first compound 0.0316 µM.
Where [26] appears, read: second compound 1 µM, first compound 0.1 µM.
Setting [27] is: second compound 1 µM, first compound 0.316 µM.
The mark [28] stands for this setting: second compound 1 µM, first compound 1 µM.
The mark [29] stands for this setting: second compound 1 µM, first compound 3.16 µM.
Where [30] appears, read: second compound 1 µM, first compound 10 µM.
Where [31] appears, read: second compound 3.16 µM, first compound 0.0316 µM.
Where [32] appears, read: second compound 3.16 µM, first compound 0.1 µM.
The mark [33] stands for this setting: second compound 3.16 µM, first compound 0.316 µM.
Setting [34] is: second compound 3.16 µM, first compound 1 µM.
Setting [35] is: second compound 3.16 µM, first compound 3.16 µM.
The mark [36] stands for this setting: second compound 3.16 µM, first compound 10 µM.
Setting [37] is: second compound 10 µM, first compound 0.0316 µM.
Where [38] appears, read: second compound 10 µM, first compound 0.1 µM.
Setting [39] is: second compound 10 µM, first compound 0.316 µM.
Setting [40] is: second compound 10 µM, first compound 1 µM.
The mark [41] stands for this setting: second compound 10 µM, first compound 3.16 µM.
[42] abbreviates: second compound 10 µM, first compound 10 µM.

Molecules are shown by their SMILES. Several values for one entry are separate records, joined by “and”; a condition that tells them apart may be missing. Identical values can stand only once.

This passage reports IC50 and viability, T/C results from PubChem BioAssay AID2060505 (Molecular Pharmacology Branch, DTP, NCI, 2025).
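Further: spheroids exposed to the agents for seven days.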
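Wherever viability, T/C is given: percent of DMSO vehicle control viability which is 100%.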

In the case of `C=CC(=O)N1CCN(c2nc(=O)n(-c3c(C)ccnc3C(C)C)c3nc(-c4c(O)cccc4F)c(F)cc23)C(C)C1` (stereo unspecified) + Cc1[nH]c2ccc(F)cc2c1-c1nc2c3cccnc3c3ncccc3c2[nH]1, the IC50 (as a rule, the concentration that gives 50% inhibition) is, setting by setting: under setting [1], > 10 µM; under setting [2], > 10 µM; under setting [3], > 10 µM; under setting [4], > 10 µM; under setting [5], > 10 µM; under setting [6], > 10 µM. The viability, T/C (usually the ratio of treated to control) under setting [7] was 95.3%; the viability, T/C under setting [8] was 100%; the viability, T/C under setting [9] is 93.9%; the viability, T/C under setting [10] was 104%; the viability, T/C under setting [11] is 104%; the viability, T/C under setting [12] is 77.9%. In addition, the viability, T/C reads like this: under setting [13], 106%; under setting [14], 105%; under setting [15], 102%; under setting [16], 100%; under setting [17], 105%; under setting [18], 88.9%. Moreover, the viability, T/C under setting [19] was 97.3%; the viability, T/C under setting [20] was 98.1%; the viability, T/C under setting [21] was 103%; the viability, T/C under setting [22] was 97.6%; the viability, T/C under setting [23] is 105%; the viability, T/C under setting [24] was 83.3%. Also, the viability, T/C reads like this: under setting [25], 91.5%; under setting [26], 92.4%; under setting [27], 94.7%; under setting [28], 98.1%; under setting [29], 90.1%; under setting [30], 77.9%. The viability, T/C under setting [31] is 72.5%; the viability, T/C under setting [32] is 74.9%; the viability, T/C under setting [33] is 75.8%; the viability, T/C under setting [34] is 76.3%; the viability, T/C under setting [35] is 74.2%; the viability, T/C under setting [36] is 62.6%. Also, the viability, T/C was 67% under setting [37]; 71.8% under setting [38]; 68.2% under setting [39]; 78.7% under setting [40]; 71.6% under setting [41]; 59% under setting [42].

As to `CC1COCCN1c1cc(C2(S(C)(=N)=O)CC2)nc(-c2ccnc3[nH]ccc23)n1` (stereo unspecified), the viability, T/C is, setting by setting: (compound 0.0316 µM) 94.8% and 102% and 108%; (compound 0.1 µM) 97.4% and 89.5% and 94.1%; (compound 0.316 µM) 98.2% and 98.4% and 91.8%; (compound 1 µM) 79.9% and 72.7% and 79.3%; (compound 3.16 µM) 49.4% and 51.8% and 86.4%; (compound 10 µM) 31% and 33.7% and 32.8%. The IC50 (curve of compound) was 3.02 µM and 3.22 µM and 6.63 µM.

Take `O=C(c1cc(Cc2n[nH]c(=O)c3ccccc23)ccc1F)N1CCN(C(=O)C2CC2)CC1`: the viability, T/C runs as follows: (compound 0.0316 µM) 101% and 96.1% and 100%; (compound 0.1 µM) 94.1% and 84.6% and 94%; (compound 0.316 µM) 86.2% and 95.4% and 96.1%; (compound 1 µM) 85.2% and 91.4% and 78.4%; (compound 3.16 µM) 74.8% and 71.8% and 75.2%; (compound 10 µM) 58.2% and 52.5% and 61.2%. Further, the IC50 (curve of compound) is > 10 µM.

`Cc1cnc(CNC(=O)c2c(=O)c3ccc(N4CCCN(C)CC4)nc3n3c2sc2ccccc23)cn1`: the viability, T/C (compound 0.0316 µM) is 66.5% [middle of 12 runs]; the viability, T/C (compound 0.1 µM) is 51.1% [middle of 12 runs]; the viability, T/C (compound 0.316 µM) is 46.2% [middle of 11 runs]; the viability, T/C (compound 1 µM) was 41.8% [middle of 12 runs]; the viability, T/C (compound 3.16 µM) was 39% [middle of 12 runs]; the viability, T/C (compound 10 µM) was 33.2% [middle of 12 runs]. Also, the IC50 (compound alone, run of 03/18/2024) was 187 nM [middle of 12 runs].

Turning to `C#Cc1c(F)ccc2cc(O)cc(-c3ncc4c(N5CC6CCC(C5)N6)nc(OCC56CCCN5CC(F)C6)nc4c3F)c12` (stereo unspecified) + Cc1[nH]c2ccc(F)cc2c1-c1nc2c3cccnc3c3ncccc3c2[nH]1, the IC50 is, setting by setting: under setting [1], > 10 µM; under setting [2], > 10 µM; under setting [3], > 10 µM; under setting [4], > 10 µM; under setting [5], 4.83 µM; under setting [6], 4.06 µM. Further, the viability, T/C was 103% under setting [7]; 89.9% under setting [8]; 93.8% under setting [9]; 81.1% under setting [10]; 75.7% under setting [11]; 60.6% under setting [12]. Also, the viability, T/C runs as follows: under setting [13], 89.7%; under setting [14], 107%; under setting [15], 83.7%; under setting [16], 88.4%; under setting [17], 69.8%; under setting [18], 64%. Besides, the viability, T/C is 89.3% under setting [19]; 86.7% under setting [20]; 82.7% under setting [21]; 81.1% under setting [22]; 77.5% under setting [23]; 60.6% under setting [24]. The viability, T/C reads like this: under setting [25], 78.8%; under setting [26], 82%; under setting [27], 82.5%; under setting [28], 74.6%; under setting [29], 71.5%; under setting [30], 56.6%. In addition, the viability, T/C reads like this: under setting [31], 63.5%; under setting [32], 66.1%; under setting [33], 65.7%; under setting [34], 66.2%; under setting [35], 52%; under setting [36], 41.1%. Further, the viability, T/C was 58% under setting [37]; 60.7% under setting [38]; 60.7% under setting [39]; 62.4% under setting [40]; 52.8% under setting [41]; 34.7% under setting [42].

With `CCCS(=O)(=O)Nc1ccc(F)c(C(=O)c2c[nH]c3ncc(-c4ccc(Cl)cc4)cc23)c1F` + Cc1[nH]c2ccc(F)cc2c1-c1nc2c3cccnc3c3ncccc3c2[nH]1, the IC50 reads like this: under setting [1], 9.54 µM; under setting [2], 9.21 µM; under setting [3], 8.58 µM; under setting [4], 8.24 µM; under setting [5], 7.09 µM; under setting [6], > 10 µM. Besides, the viability, T/C is 103% under setting [7]; 94.6% under setting [8]; 107% under setting [9]; 100% under setting [10]; 86.8% under setting [11]; 48.1% under setting [12]. Moreover, the viability, T/C is 100% under setting [13]; 108% under setting [14]; 102% under setting [15]; 102% under setting [16]; 91.6% under setting [17]; 46.7% under setting [18]. For the same compound, the viability, T/C was 91.2% under setting [19]; 98.9% under setting [20]; 103% under setting [21]; 104% under setting [22]; 94.7% under setting [23]; 43.1% under setting [24]. Besides, the viability, T/C is, setting by setting: under setting [25], 86.4%; under setting [26], 88.8%; under setting [27], 92.5%; under setting [28], 90.2%; under setting [29], 90.1%; under setting [30], 42%. In addition, the viability, T/C reads like this: under setting [31], 70.7%; under setting [32], 71.2%; under setting [33], 66.9%; under setting [34], 76.2%; under setting [35], 71.2%; under setting [36], 41%. Also, the viability, T/C under setting [37] is 60.4%; the viability, T/C under setting [38] was 64.3%; the viability, T/C under setting [39] was 65.2%; the viability, T/C under setting [40] was 74.4%; the viability, T/C under setting [41] was 63.3%; the viability, T/C under setting [42] is 41.1%.

With `CN(C)c1ccc(Nc2c3ccc(NC(=O)CCN4CCCC4)cc3nc3cc(NC(=O)CCN4CCCC4)ccc23)cc1`, the viability, T/C (compound 0.0316 µM) was 102% [middle of 12 runs]; the viability, T/C (compound 0.1 µM) is 101% [middle of 12 runs]; the viability, T/C (compound 0.316 µM) is 103% [middle of 12 runs]; the viability, T/C (compound 1 µM) is 94.3% [middle of 12 runs]; the viability, T/C (compound 3.16 µM) was 81.8% [middle of 12 runs]; the viability, T/C (compound 10 µM) is 36.6% [middle of 12 runs]. Also, where the note is “compound alone, run of 03/26/2024”, the IC50 is 7.24 µM [middle of 12 runs].

For the compound `C#Cc1c(F)ccc2cc(O)cc(-c3ncc4c(N5CC6CCC(C5)N6)nc(OCC56CCCN5CC(F)C6)nc4c3F)c12` (stereo unspecified), the viability, T/C (compound 0.0316 µM) was 113% and 109% and 110%; the viability, T/C (compound 0.1 µM) is 97.5% and 81% and 88.5%; the viability, T/C (compound 0.316 µM) was 89.9% and 97.2% and 102%; the viability, T/C (compound 1 µM) is 91.7% and 88.4% and 80.4%; the viability, T/C (compound 3.16 µM) is 89.1% and 69.1% and 78.6%; the viability, T/C (compound 10 µM) was 72.7% and 64.9% and 67.2%. For the same compound, where the note is “curve of compound”, the IC50 was > 10 µM.
